The values below come from patent US9840478B2 (MERCK SHARP & DOHME CORP., priority 2013, dated 2017).

The assay relates to HIV-1 (H9IIIB strain). The experiment in a line: Cell-based HIV infection assay using a reporter (Cell-Based), MT4-GFP cells. As to conditions: Human immunodeficiency virus 1, MT4-GFP cells infected with HIV-1 H9IIIB; 50% normal human serum; mean of at least two independent experiments; read-out: Cell-based IP. How it is done: Cell-Based HIV Infection Assay Using a Reporter (“Cell-Based”):
MT4-GFP cells contain a stably integrated HIV long terminal repeat promoter directing the transcription of green fluorescent protein (GFP). When HIV infects the cell, GFP is produced and the cell becomes green. MT4-GFP cells (250,000 cells/ml) were bulk-infected with HIV-1 (H9IIIB strain) at low multiplicity of infection (MOI) in RPMI media, supplemented with 10% FBS for 24 hours. Cells were then washed once in RPMI plus 10% FBS and resuspended in RPMI plus 50% normal human serum (NHS). Test compounds were serial-diluted in DMSO using an ECHO liquid dispenser. A control well included a combination of three HIV drugs (an inhibitor of HIV protease, integrase strand transfer and a non-nucleoside reverse transcriptase inhibitor; triple drug). The infected MT4-GFP cells were added to a 384-well poly-D-lysine coated black plate with clear bottom in which the diluted test compounds were placed. The cells were seeded in the plate at 8,000 cells per well and the final DMSO concentration was 0.4%. Infected cells were quantified at both 24 and 48 hours post incubation using an Acumen eX3 plate reader. Viral reproductive ratio (R0) was determined using the number of infected cells at 48 hours divided by the number of infected cells at 24 hours. Percent viral growth inhibition was calculated by [1−(R−Rtripledrug)/(RDMSO−Rtripledrug)]*100. Compound potency IP or IC50 was determined with use of a 4-parameter dose response curve analysis.

As to `COC(=O)N[C@H](C(=O)Nc1cccc(F)c1CC[C@H]1CNCC2(CC2)CN1S(=O)(=O)c1ccccc1)[C@@H](c1ccc(Cl)cc1)c1ccc(OC)nc1` [Example 19, Methyl ((1S,2S)-1-(4-chlorophenyl)-3-((3-fluoro-2-(2-((S)-5-phenylsulfonyl)-5,8-diazaspiro[2.6]nonan-6-yl)ethyl)phenylamino)-1-(6-methoxypyridin-3-yl)-3-oxopropan-2-yl)carbamate 2,2,2-trifluoroacetate], the IC50 worked out at 16 nM.

Consider `COC(=O)N[C@H](C(=O)Nc1cccc(F)c1CC[C@H]1CNCC2(CC2)CN1S(=O)(=O)c1ccccc1)[C@@H](c1ccc(F)cc1)C1CCOCC1` [Example 20, Methyl ((2S,3R)-1-((3-fluoro-2-(2-((S)-5-(phenylsulfonyl)-5,8-diazaspiro[2.6]nonan-6-yl)ethyl)phenyl)amino)-3-(4-fluorophenyl)-1-oxo-3-(tetrahydro-2H-pyran-4-yl)propan-2-yl)carbamate], for which the IC50 stood at 21 nM. With `N[C@H](C(=O)Nc1cncc(F)c1CC[C@H]1CNCCN1S(=O)(=O)CC1CC1)[C@@H](c1ccc(F)cc1)c1cc(F)cc(F)c1` [Example 28, (βS)-N-[4-(2-{(2S)-1-[(cyclopropylmethyl)sulfonyl]piperazin-2-yl}ethyl)-5-fluoropyridin-3-yl]-3,5-difluoro-β-(4-fluorophenyl)-L-phenylalaninamide], the IC50 was 21 nM.

As to `Nc1ccc(S(=O)(=O)N2CCNC[C@@H]2CCc2c(F)cncc2NC(=O)[C@@H](N)[C@@H](c2ccc(F)cc2)c2cc(F)cc(F)c2)cn1` [Example 29, (βS)-N-[4-(2-{(2S)-1[(6-aminopyridin-3-yl)sulfonyl]piperazin-2-yl}ethyl)-5-fluoropyridin-3-yl]-3,5-difluoro-β-(4-fluorophenyl)-L-phenylalaninamide], the IC50 is 520 nM. On to `N[C@H](C(=O)Nc1cncc(F)c1CC[C@H]1CNCCN1S(=O)(=O)c1ccccc1)[C@@H](c1ccc(F)cc1)c1cc(F)cc(F)c1` [Example 30, (βS)-β-(3,5-difluorophenyl)-4-fluoro-N-(5-fluoro-4-{2-[(2S)-1-(phenylsulfonyl)piperazin-2-yl]ethyl}pyridin-3-yl)-L-phenylalaninamide], for which the IC50 was determined as 9.3 nM.

Consider `N[C@H](C(=O)Nc1cccc(F)c1CC[C@@H]1CNCCN1S(=O)(=O)c1ccccc1)C(c1ccc(F)cc1)c1ccc(F)cc1` [Example 31, (S)-2-amino-N-(3-fluoro-2-(2-((R)-1-(phenylsulfonyl)piperazin-2-yl)ethyl)phenyl)-3,3-bis(4-fluorophenyl) propanamide], for which the IC50 came out at 850 nM. For the compound `N[C@H](C(=O)Nc1cccc(F)c1CC[C@H]1CNCCN1S(=O)(=O)c1ccccc1)C(c1ccc(F)cc1)c1ccc(F)cc1` [Example 32, (S)-2-amino-N-(3-fluoro-2-(2-((S)-1-(phenylsulfonyl)piperazin-2-yl)ethyl)phenyl)-3,3-bis(4-fluorophenyl) propanamide], the IC50 amounted to 6.6 nM. For the compound `N[C@H](C(=O)Nc1cncc(F)c1CC[C@H]1CNCCN1S(=O)(=O)C1CC1)[C@@H](c1ccc(F)cc1)c1cc(F)cc(F)c1` [Example 33, (βS)-N-(4-{2-[(2S)-1-(cyclopropylsulfonyl)piperazin-2-yl]ethyl}-5-fluoropyridin-3-yl)-3,5-difluoro-β-(4-fluorophenyl)-L-phenylalaninamide], the IC50 came to 25 nM. `N[C@H](C(=O)Nc1cccc(F)c1CCC1CNCCN1S(=O)(=O)c1ccccc1)C(c1cc(F)cc(F)c1)c1cc(F)cc(F)c1` (stereo partly drawn) [Example 34, β-(3,5-difluorophenyl)-3,5-difluoro-N-(3-fluoro-2-{2-[1-(phenylsulfonyl)piperazin-2-yl]ethyl}phenyl)-L-phenylalaninamide]: the IC50 turned out to be 16 nM. For the compound `N[C@H](C(=O)Nc1cncc(F)c1CC[C@H]1CNCCN1S(=O)(=O)c1ccccc1)[C@@H](c1ccc(Cl)cc1)c1cccc(F)c1` [Example 35, (βS)-4-chloro-β-(3-fluorophenyl)-N-(5-fluoro-4-{2-[(2S)-1-(phenylsulfonyl)piperazin-2-yl]ethyl}pyridin-3-yl)-L-phenylalaninamide], the IC50 was 13 nM. Take `O=C(C[C@@H](c1ccc(Cl)cc1)C1CCS(=O)(=O)CC1)Nc1cccc(F)c1CC[C@H]1CNCCN1S(=O)(=O)c1ccccc1` [Example 36, (3R)-3-(4-chlorophenyl)-3-(1,1-dioxidotetrahydro-2H-thiopyran-4-yl)-N-(3-fluoro-2-{2-[(2S)-1-(phenylsulfonyl)piperazin-2-yl]ethyl}phenyl) propanamide]: the IC50 was 29 nM. The result for `N[C@H](C(=O)Nc1cccc(F)c1CC[C@H]1CNCCN1S(=O)(=O)c1ccccc1)[C@@H](c1ccc(Cl)c(F)c1)C1CCOCC1` [Example 37, (βR)-4-chloro-3-fluoro-N-(3-fluoro-2-{2-[(2S)-1-(phenylsulfonyl)piperazin-2-yl]ethyl}phenyl)-β-(tetrahydro-2H-pyran-4-yl)-L-phenylalaninamide] reads 46 nM; that for `N[C@H](C(=O)Nc1cccc(F)c1CC[C@@H]1CNCCN1S(=O)(=O)c1ccccc1)[C@@H](c1ccc(Cl)c(F)c1)C1CCOCC1` [Example 38, (βR)-4-chloro-3-fluoro-N-(3-fluoro-2-{2-[(2R)-1-(phenylsulfonyl)piperazin-2-yl]ethyl}phenyl)-β-(tetrahydro-2H-pyran-4-yl)-L-phenylalaninamide], 890 nM. Consider `N[C@H](C(=O)Nc1cccc(F)c1CC[C@H]1CNCCN1S(=O)(=O)c1ccccc1)[C@@H](c1ccc(Cl)cc1)c1cccc(F)c1` [Example 39, (βS)-4-chloro-β-(3-fluorophenyl)-N-(3-fluoro-2-{2-[(2S)-1-(phenylsulfonyl)piperazin-2-yl]ethyl}phenyl)-L-phenylalaninamide], for which the IC50 came to 12 nM. `N[C@H](C(=O)Nc1cccc(F)c1CC[C@H]1CNCCN1S(=O)(=O)c1ccccc1)[C@@H](c1ccc(Cl)cc1)C1CCS(=O)(=O)CC1` [Example 41, (βR)-4-chloro-β-(1,1-dioxidotetrahydro-2H-thiopyran-4-yl)-N-(3-fluoro-2-{2-[(2S)-1-(phenylsulfonyl)piperazin-2-yl]ethyl}phenyl)-L-phenylalaninamide]: the IC50 was 34 nM. On to `N[C@H](C(=O)Nc1cccc(F)c1CC[C@H]1CNCCN1S(=O)(=O)c1ccccc1)[C@@H](c1ccc(Cl)cc1)c1cccc(OC(F)(F)F)c1` [Example 42, (βS)-4-chloro-N-(3-fluoro-2-{2-[(2S)-1-(phenylsulfonyl)piperazin-2-yl]ethyl}phenyl)-β-[3-(trifluoromethoxy)phenyl]-L-phenylalaninamide], for which the IC50 was 60 nM. The result for `N[C@H](C(=O)Nc1cccc(F)c1CC[C@H]1CNCCN1S(=O)(=O)c1ccccc1)[C@@H](c1ccc(Cl)cc1)c1cc(F)cc(F)c1` [Example 43, (βS)-4-chloro-β-(3,5-difluorophenyl)-N-(3-fluoro-2-{2-[(2S)-1-(phenylsulfonyl)piperazin-2-yl]ethyl}phenyl)-L-phenylalaninamide] reads 12 nM; that for `N[C@H](C(=O)Nc1cccc(F)c1CC[C@H]1CNCCN1S(=O)(=O)c1ccccc1)[C@@H](c1ccc(Cl)cc1)c1cncc(F)c1` [Example 44, (βS)-4-chloro-N-(3-fluoro-2-{2-[(2S)-1-(phenylsulfonyl)piperazin-2-yl]ethyl}phenyl)-β-(5-fluoropyridin-3-yl)-L-phenylalaninamide], 15 nM; that for `N[C@H](C(=O)Nc1cncc(F)c1CC[C@H]1CNCCN1S(=O)(=O)c1ccccc1)[C@@H](c1ccc(Cl)cc1)c1cccc(OC(F)(F)F)c1` [Example 45, (βS)-4-chloro-N-(5-fluoro-4-{2-[(2S)-1-(phenylsulfonyl)piperazin-2-yl]ethyl}pyridin-3-yl)-β-[3-(trifluoromethoxy)phenyl]-L-phenylalaninamide], 16 nM. For `N[C@H](C(=O)Nc1cncc(F)c1CC[C@H]1CNCCN1S(=O)(=O)c1ccccc1)[C@@H](c1ccc(Cl)cc1)c1cc(F)cc(F)c1` [Example 46, (βS)-4-chloro-β-(3,5-difluorophenyl)-N-(5-fluoro-4-{2-[(2S)-1-(phenylsulfonyl)piperazin-2-yl]ethyl}pyridin-3-yl)-L-phenylalaninamide], the IC50 turned out to be 12 nM.

`N[C@@H](Cc1ccc(F)cc1)C(=O)Nc1cncc(F)c1CC[C@H]1CNCCN1S(=O)(=O)C1CC1` [Example 47, N-(4-{2-[(2S)-1-(cyclopropylsulfonyl)piperazin-2-yl]ethyl}-5-fluoropyridin-3-yl)-4-fluoro-L-phenylalaninamide]: the IC50 is 1200 nM. Turning to `COC(=O)N[C@H](C(=O)Nc1cncc(F)c1CC[C@H]1CNCCN1S(C)(=O)=O)[C@@H](c1ccc(F)cc1)c1cc(F)cc(F)c1` [Example 48, methyl ((1S,2S)-1-(3,5-difluorophenyl)-3-((5-fluoro-4-(2-((S)-1-(methylsulfonyl)piperazin-2-yl)ethyl)pyridin-3-yl)amino)-1-(4-fluorophenyl)-3-oxopropan-2-yl)carbamate], the IC50 is 66 nM.
